“Also recorded” adds a separate entry of the source.
How the values were obtained:
[1] = tested on: SKVBL (MDR variant of SKOV3); assay: Cytotoxicity by counting cells after 72 h, MDR variant cells; type: cell-based, human
Method: (§1) Human non-small cell lung carcinoma cells, A549, were maintained in RPMI 1640 containing 10% fetal bovine serum and 1% penicillin-streptomycin (Gibco Laboratories, Grand Island N.Y.) at 37° C. in 7% CO2. The Taxol-resistant cell line A549-T12 was selected for resistance to Taxol and maintained in a final concentration of 12 nM drug (21). Human ovarian carcinoma cells SKOV3 and the MDR variant SKVBL (obtained from Dr. V. Ling) were maintained in α-mem plus ribonucleotides, deoxynucleotides, 15% fetal bovine serum and 1% penicillin-streptomycin (Gibco Laboratories) at 37° C. in 5% CO2. SKVBL cells were maintained in […] vinblastine (Sigma Chemical Co.).
(§2) Taxol-resistant and sensitive cell lines were seeded into 12-well plates at a density of 5×10^4 cells per well and allowed a period of 12 h for attachment prior to treatment. Cells were exposed to 10-fold serial dilutions of each compound (10^-10 to 10^-6 M) for 72 h. Cells were then trypsinized and counted (Coulter counter model ZF0031, Coulter Corp., Miami, Fla.). The IC50 was determined by plotting cell number against log of the drug concentration and this was used to determine the concentration of compound resulting in 50% growth inhibition compared to untreated cells. Each cell line was assayed in a minimum of 3 independent experiments with each compound and the results expressed as the mean IC50.
(§3) The cytotoxic efficacy of eleutherobin and its derivatives (FIG. 6) was evaluated in two drug sensitive human cancer cell lines and their Taxol-resistant counterparts. The results are summarized in Table I in order of decreasing potency. […] The Taxol-resistant cell line SKVBL overexpresses high levels of P-glycoprotein (22). […] The only difference between the two agents is the enantiomeric relationship in the carbohydrate (2'-acetylarabinose) sector (FIG. 6). […] This cell line expressed high levels of MDR1 resulting in Taxol-resistance equal or greater than 1666 -fold compared to the Taxol-sensitive SKOV3 cell line.
(§4) ^a Cytotoxicity determined by counting cells after 72 h drug exposure.

[2] = tested on: Human ovarian carcinoma cells SKOV3; assay: Cytotoxicity by counting cells after 72 h, Taxol-sensitive cells; type: cell-based; conditions: SK-OV-3, 72 h
Method: as §1, §2, §4

P-glycoprotein = P-glycoprotein substrate behaviour inferred from resistance of SKVBL cells; type: cell-based, human
Method: as §1, §2, §3

[3] = SKBII.294 and 298 structures compared; cited from earlier work
[4] = tested on: tubulin / microtubule protein; assay: Tubulin polymerization by turbidity at 350 nm in the absence of GTP; type: biochemical, calf; conditions: 10 μM, relative to eleutherobin
Method: Eleutherobin and its derivatives were synthesized as described (18,19). Taxol was obtained from the Drug Development Branch, National Cancer Institute (Bethesda, Md.). All compounds were dissolved in dimethyl sulfoxide (Sigma Chemical Co., St. Louis, Mo.) at stock concentrations of 5 mM and stored at -20° C. All control samples contained an equal volume of DMSO. GTP was obtained from Sigma Chemical Co. And dissolved in sterile distilled water at a concentration of 10 mM and stored at -20° C. Microtubule protein was purified from calf brains by two cycles of temperature-dependent assembly and disassembly (20) and stored in liquid nitrogen prior to use. The anti-mouse β-tubulin monoclonal antibody T-4026 was obtained from Sigma Chemical Co.
The ability of each compound to polymerize tubulin was evaluated by recording the change in turbidity of microtubule protein at 350 nm for 80 min in a spectrophotometer (UVIKON, Research Instruments Int., SD, Calif.). One mg of purified microtubule protein was diluted in assembly buffer containing 0.1 M MES, 1 mM EGTA, 0.5 mM MgCl2 and 3 M glycerol, pH 6.6. All compounds were evaluated at a concentration of 10 μM at 37° C. […] Microtubule stability was assessed by the addition of 10 mM Ca^++. changes from t=0-10 min were used to calculate initial slopes from the linear portion of each curve. These values were used to calculate the activity of each compound (relative to the activity of Taxol which was assigned a value of 100%).
The polymerization activity of these compounds was also assessed by determining the slope of the linear portion of each curve at A350 nm (t=0-10 min), and expressing this relative to Taxol (which was assigned a value of 100% (FIG. 8). The order of activity of eleutherobin and derivatives using this method, corroborates the results obtained from cytotoxicity studies.

[5] = tested on: cellular microtubules, NIH 3T3 cells; assay: Microtubule bundle formation by immunofluorescence; type: cell-based; conditions: 2 μM, 5.5 h, 37 °C
Method: FIG. 9 immunofluorescence images NIH3T3 cells labeled with β-tubulin antibody following exposure to different drugs. A)DMSO; B)2 μM Taxol; C)2 μM eleutherobin; D)2 μM neo-eleutherobin; E)2 μM SKBII.294; F)2 μM SKBIII.13.
Illustrates the effects of eleutherobin and its derivatives on the morphology of cellular microtubules following exposure of cells to 2 μM of each compound for 5.5 h at 37° C. […] The number of micotic asters correlated with the extent of microtubule bundling in interphase cells.
(§5) NIH 3T3 cells were grown to subconfluency on glass converslips in 35 mm plastic petri dishes. Cells were exposed to 2 μM of Taxol and each of the experimental compounds for 5.5 h at 37° C., rinsed twice in PBS and extracted with 0.5% Triton-X-100 in microtubule stabilizing buffer (PEM) (100 mM PIPES, 2 mM EGTA and 2 mM MgCl2, pH 6.8) for 4 min. Following a wash in PEM, the cells were fixed for 40 min at room temperature in 3% formaldehyde in PEM followed by incubation in 0.1 M glycine in PBS for 10 min and washing (four times) in PEM containing 5 μM EGTA. Following blocking in 20% normal goat serum (NGS) for 30 min at room temperature, cells were incubated for 1 h at 37° C. with a 1:100 dilution of β-tubulin mAb diluted in 10% NGS, washed twice in 1% BSA, once in PBS and three times in 1% BSA. Cells were then incubated in a 1:200 dilution of the secondary fluorophore antibody, IndocarbocyanineCY3 (Jackson Immunoresearch Laboratories Inc., Pa.) in 20% NGS for 20 min at room temperature. Finally cells were washed three times in 1% BSA and the dried slides mounted in 30% glycerol in PBS containing […]-phenylene diamine (1 mg/ml). Fixed slides were examined using a Zeiss Axioskop microscope.

[6] = tested on: Human non-small cell lung carcinoma cells, A549; assay: Cytotoxicity by counting cells after 72 h, Taxol-sensitive cells; type: cell-based; conditions: for IC50: Homo sapiens, A549, 72 h; for cytotoxicity (in words): sensitive cell lines (A549, SKOV3)
Method: Taxol-resistant and sensitive cell lines were seeded into 12-well plates at a density of 5×10^4 cells per well and allowed a period of 12 h for attachment prior to treatment. […] Cells were then trypsinized and counted (Coulter counter model ZF0031, Coulter Corp., Miami, Fla.).

[7] = tested on: A549-T12 (Taxol-resistant A549); assay: Cytotoxicity by counting cells after 72 h, Taxol-resistant cells; type: cell-based, human
Method: as §1, §2, §3, §4

[8] = Solubility compared to eleutherobin; type: physicochemical
[9] = Overall biological activity, all parameters tested
Method: as §2
The ability of each compound to polymerize tubulin was evaluated by recording the change in turbidity of microtubule protein at 350 nm for 80 min in a spectrophotometer (UVIKON, Research Instruments Int., SD, Calif.). One mg of purified microtubule protein was diluted in assembly buffer containing 0.1 M MES, 1 mM EGTA, 0.5 mM MgCl2 and 3 M glycerol, pH 6.6. All compounds were evaluated at a concentration of 10 μM at 37° C. GTP was used at a final concentration of 1 mM. Microtubule stability was assessed by the addition of 10 mM Ca^++. changes from t=0-10 min were used to calculate initial slopes from the linear portion of each curve. These values were used to calculate the activity of each compound (relative to the activity of Taxol which was assigned a value of 100%).
as §5

SMILES | IC50 ([1]; Homo sapiens, SK-OV-3, Ovarian Carcinoma SKOV3, Resistant (SKVBL), 72 h, mean of at least three independent experiments) | cross-resistance in SKVBL (in words) ([1]; MDR1 expressing cells, high P-glycoprotein) | fold resistance relative to the parental cell line ([1]; SKVBL vs SKOV3) | IC50 [2] | P-glycoprotein substrate (in words) (P-glycoprotein) | activity reported for compounds with the same structures (in words) [3] | microtubule polymerization activity relative to eleutherobin [4] | microtubule bundle formation (in words) [5] | IC50 [6] | cytotoxicity (in words) [6] | fold resistance relative to the parental cell line ([7]; A549-T12 vs A549, 4320 min) | IC50 ([7]; Homo sapiens, Lung Carcinoma A549, Resistant (A549-T12), 72 h, mean of at least three independent experiments) | solubility (in words) [8] | biological activity (in words) [9]
CO[C@]12C=C[C@](C)(O1)[C@@H](OC(=O)/C=C/c1cn(C)cn1)C[C@H]1C(C)=CC[C@H](C(C)C)[C@H]1C=C2COC(C)=O [SKBII.294] | 1040 nM | essentially not cross-resistant | 3.4 fold | 307 nM | considerably less attractive for P-glycoprotein compared to eleutherobin and neo-eleutherobin | equal activity | 54% | reduced bundle formation in cultured cells; also recorded: induced less bundle formation than neo-eleutherobin | 152 nM | less cytotoxic than either eleutherobin or neo-eleutherobin; also recorded: more cytotoxic than to SKBII.296 | 1.1 fold | 162 nM | reduced solubility compared to eleutherobin | 
CO[C@]12C=C[C@](C)(O1)[C@@H](OC(=O)/C=C/c1cn(C)cn1)C[C@H]1C(C)=CC[C@H](C(C)C)[C@H]1C=C2CO [SKBII.298] |  |  |  | > 5000 nM |  | equal activity | 36% | induced less bundle formation than neo-eleutherobin | 1060 nM | considerably less cytotoxic (in the μM range) |  |  | reduced solubility compared to eleutherobin | the least active compound in this sub-group

Source: patent publication US6172205A, “Synthetic process toward total synthesis of eleutherobin and its analogues and uses thereof” (The Trustees of Columbia in the City of New York, priority 1998, dated 2001)
